Where two headings read alike, the source gives them in different places.
Tested on: CD-1 mice
Source text: Lethal doses LD10 of a cytostatic active substance determinated in mice is generally considered as being a significative correlation with the maximum tolerated doses (MTD) in man.

For `O=C1[O][Pt]2([NH]C3CCCCC3[NH]2)[O]C1=O` (stereo not drawn) [Example 1, cis-oxalate (trans l-1,2-cyclohexanediamine)-platinum (II)], the LD10 (same solution with addition of oxalic acid at a final concentration of 0.2 mM (second group)) was “around 14.4” and the LD10 (solution of the oxaliplatin active substance alone (first group)) was “around 18.0 mg/kg”.

— patent publication US8211940B2 (Debiopharm S.A., priority 2001, dated 2012)
